Experimental data as given in US20120172379A1, “4 SUBSTITUTED PYRAZOLOPYRIMIDINES” (VERTEX PHARMACEUTICALS INCORPORATED, priority 2009, published 2012).

Tests used:
Type in all cases: biochemical
PKC delta kinase = PKC delta kinase (Homo sapiens, UniProt Q05655); test: PKC Delta coupled-enzyme kinase assay (NADH consumption, absorbance at 340 nm); settings: 46 nM PKC delta kinase, ATP final assay concentration of 150, 150 μM substrate peptide, 30° C.
Procedure: An assay buffer solution was prepared which consisted of 100 mM HEPES (pH 7.5), 10 mM MgCl2, 25 mM NaCl, 0.1 mM EDTA and 0.01% Brij. An enzyme buffer containing reagents to final assay concentrations of 0.002% Triton X-100, 200 μg/mL Phosphatidylserine, 20 μg/mL Diacylglycerol; 360 μM NADH, 3 mM phosphoenolpyruvate, 70 μg/mL pyruvate kinase, 24 μg/mL lactate dehydrogenase, 2 mM DTT, 150 μM substrate peptide (ERMRPRKRQGSVRRRV SEQ ID NO. 2) and 46 nM PKC delta kinase was prepared in assay buffer. To 16 μL of this enzyme buffer, in a 384 well plate, was added 1 μL of VRT stock solution in DMSO. The mixture was allowed to equilibrate for 10 mins at 30° C. The enzyme reaction was initiated by the addition of 16 μL stock ATP solution prepared in assay buffer to a final assay concentration of 150 Initial rate data was determined from the rate of change of absorbance at 340 nm (corresponding to stoichiometric consumption of NADH) using a Molecular Devices Spectramax plate reader (Sunnyvale, Calif.) over 15 mins at 30° C. For each Ki determination 12 data points covering the VRT concentration range of 0-20 μM were obtained in duplicate (DMSO stocks were prepared from an initial 10 mM VRT stock with subsequent 1:2 serial dilutions). Ki values were calculated from initial rate data by non-linear regression using the Prism software package (Prism 4.0a, Graphpad Software, San Diego, Calif.).

PKC theta kinase = PKC theta kinase (Homo sapiens, UniProt Q04759); test: PKC Theta coupled-enzyme kinase assay (NADH consumption, absorbance at 340 nm); settings: 18 nM PKC theta kinase, 240 μM ATP, 100 μM substrate peptide, 30° C.
PKC theta kinase, sequence (Q04759 whole entry): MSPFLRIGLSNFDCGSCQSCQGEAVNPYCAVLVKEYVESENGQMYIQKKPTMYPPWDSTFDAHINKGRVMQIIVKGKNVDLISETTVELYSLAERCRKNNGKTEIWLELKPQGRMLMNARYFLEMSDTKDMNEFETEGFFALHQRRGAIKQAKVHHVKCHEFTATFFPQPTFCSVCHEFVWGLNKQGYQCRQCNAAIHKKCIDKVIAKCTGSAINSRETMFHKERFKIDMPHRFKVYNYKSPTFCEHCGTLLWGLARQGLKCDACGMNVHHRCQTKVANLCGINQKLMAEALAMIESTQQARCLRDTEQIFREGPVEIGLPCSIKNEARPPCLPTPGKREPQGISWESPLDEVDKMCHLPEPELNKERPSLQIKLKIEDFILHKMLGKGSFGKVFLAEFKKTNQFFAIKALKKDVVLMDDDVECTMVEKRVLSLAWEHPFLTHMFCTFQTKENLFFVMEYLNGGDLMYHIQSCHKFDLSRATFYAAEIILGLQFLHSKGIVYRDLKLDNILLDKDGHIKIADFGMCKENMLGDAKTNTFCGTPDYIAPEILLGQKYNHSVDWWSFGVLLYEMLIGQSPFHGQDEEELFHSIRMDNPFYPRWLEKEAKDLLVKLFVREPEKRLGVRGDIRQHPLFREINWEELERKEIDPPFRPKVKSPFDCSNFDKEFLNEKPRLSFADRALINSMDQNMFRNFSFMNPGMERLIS
Procedure: An assay buffer solution was prepared which consisted of 100 mM HEPES (pH 7.5), 10 mM MgCl2, 25 mM NaCl, 0.1 mM EDTA and 0.01% Brij. An enzyme buffer containing reagents to final assay concentrations of 0.00001% Triton X-100, 200 μg/mL Phosphatidylserine, 20 μg/mL Diacylglycerol, 360 μM NADH, 3 mM phosphoenolpyruvate, 70 μg/mL pyruvate kinase, 24 μg/mL lactate dehydrogenase, 2 mM DTT, 100 μM substrate peptide (ERMRPRKRQGSVRRRV SEQ ID NO. 1) and 18 nM PKC theta kinase was prepared in assay buffer. To 60 μL of this enzyme buffer, in a 384 well plate, was added 2 μL of VRT stock solution in DMSO. The mixture was allowed to equilibrate for 10 mins at 30° C. The enzyme reaction was initiated by the addition of 5 μL stock ATP solution prepared in assay buffer to a final assay concentration of 240 μM. Initial rate data was determined from the rate of change of absorbance at 340 nm (corresponding to stoichiometric consumption of NADH) using a Molecular Devices Spectramax plate reader (Sunnyvale, Calif.) over 15 mins at 30° C. For each Ki determination 12 data points covering the VRT concentration range of 0-20 μM were obtained in duplicate (DMSO stocks were prepared from an initial 10 mM VRT stock with subsequent 1:2 serial dilutions). Ki values were calculated from initial rate data by non-linear regression using the Prism software package (Prism 4.0a, Graphpad Software, San Diego, Calif.). […] 1.25 D>2.8 μM.

PKC alpha kinase = PKC alpha kinase (Homo sapiens, UniProt P17252); test: PKC Alpha coupled-enzyme kinase assay (NADH consumption, absorbance at 340 nm); settings: 4.5 nM PKC alpha kinase, 130 μM ATP, 150 μM substrate peptide, 100 μM CaCl2, 30° C.
Procedure: An assay buffer solution was prepared which consisted of 100 mM HEPES (pH 7.5), 10 mM MgCl2, 25 mM NaCl, 0.1 mM EDTA, 100 μM CaCl2 and 0.01% Brij. An enzyme buffer containing reagents to final assay concentrations of 0.002% Triton X-100, 100 μg/mL Phosphatidylserine, 20 μg/mL Diacylglycerol, 360 μM NADH, 3 mM phosphoenolpyruvate, 70 μg/mL pyruvate kinase, 24 μg/mL lactate dehydrogenase, 2 mM DTT, 150 μM substrate peptide (RRRRRKGSFKRKA SEQ ID NO. 3) and 4.5 nM PKC alpha kinase was prepared in assay buffer. To 16 μL of this enzyme buffer, in a 384 well plate, was added 1 μL of VRT stock solution in DMSO. The mixture was allowed to equilibrate for 10 mins at 30° C. The enzyme reaction was initiated by the addition of 16 μL stock ATP solution prepared in assay buffer to a final assay concentration of 130 μM. Initial rate data was determined from the rate of change of absorbance at 340 nm (corresponding to stoichiometric consumption of NADH) using a Molecular Devices Spectramax plate reader (Sunnyvale, Calif.) over 15 mins at 30° C. For each Ki determination 12 data points covering the VRT concentration range of 0-20 μM were obtained in duplicate (DMSO stocks were prepared from an initial 10 mM VRT stock with subsequent 1:2 serial dilutions). Ki values were calculated from initial rate data by non-linear regression using the Prism software package (Prism 4.0a, Graphpad Software, San Diego, Calif.).

PKC delta kinase, sequence (Q05655 whole entry): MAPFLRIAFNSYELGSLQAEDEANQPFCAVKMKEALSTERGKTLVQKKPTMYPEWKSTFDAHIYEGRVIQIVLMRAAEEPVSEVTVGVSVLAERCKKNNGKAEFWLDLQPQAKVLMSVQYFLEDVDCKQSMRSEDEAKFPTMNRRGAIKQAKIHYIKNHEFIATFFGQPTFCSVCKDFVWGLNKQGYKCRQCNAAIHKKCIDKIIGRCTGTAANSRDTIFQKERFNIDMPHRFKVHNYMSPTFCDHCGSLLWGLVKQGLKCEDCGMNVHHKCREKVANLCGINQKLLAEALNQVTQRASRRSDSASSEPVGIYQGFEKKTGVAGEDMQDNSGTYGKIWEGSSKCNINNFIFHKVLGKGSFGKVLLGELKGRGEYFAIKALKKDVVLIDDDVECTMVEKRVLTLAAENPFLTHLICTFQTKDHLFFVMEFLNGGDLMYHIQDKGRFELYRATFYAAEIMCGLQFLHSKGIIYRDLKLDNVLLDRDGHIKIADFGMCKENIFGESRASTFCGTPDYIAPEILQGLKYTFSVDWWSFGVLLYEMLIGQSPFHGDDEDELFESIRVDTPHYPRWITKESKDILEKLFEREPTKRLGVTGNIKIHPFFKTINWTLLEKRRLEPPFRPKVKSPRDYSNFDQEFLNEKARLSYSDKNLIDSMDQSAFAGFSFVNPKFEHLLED

SMILES	Ki (PKC delta kinase) [nM]	Ki (PKC theta kinase) [nM]	Ki (PKC alpha kinase) [nM]
Cc1n[nH]c2ncnc(-c3cccc(C4(C#N)CC4)c3)c12 [Compound 4]	> 1250	< 50	> 1250
N#CC1(c2cccc(-c3ncnc4[nH]nc(C5CC5)c34)c2)CC1 [Compound 1, 1-(3-(3-cyclopropyl-1H-pyrazolo[3,4-d]pyrimidin-4-yl)phenyl)cyclopropanecarbonitrile]	> 1250	50 to 500	> 1250
CCc1n[nH]c2ncnc(-c3cccc(C4(C#N)CC4)c3)c12 [Compound 2]	–	< 50	> 1250
N#CC1(c2cccc(-c3ncnc4[nH]ncc34)c2)CC1 [Compound 3, 1-(3-(1H-pyrazolo[3,4-d]pyrimidin-4-yl)phenyl)cyclopropane carbonitrile]	500 to 2800	< 50	> 1250

Continued, values first:

Ki (PKC delta kinase) [nM]	Ki (PKC theta kinase) [nM]	Ki (PKC alpha kinase) [nM]	SMILES
> 1250	> 700	> 1250	NC(=O)C1(c2cccc(-c3ncnc4[nH]nc(C(F)(F)F)c34)c2)CC1 [Compound 7, 1-(3-(3-(trifluoromethyl)-1H-pyrazolo[3,4-d]pyrimidin-4-yl)phenyl)cyclopropanecarboxamide]
50 to 500	< 50	500 to 2800	CCc1n[nH]c2ncnc(-c3cccc(C4(CN)CC4)c3)c12 [Compound 5, (1-(3-(3-ethyl-1H-pyrazolo[3,4-d]pyrimidin-4-yl)phenyl)cyclopropyl)methanamine]
500 to 2800	50 to 500	> 1250	Cc1n[nH]c2ncnc(-c3cccc(C4(CN)CC4)c3)c12 [Compound 6]
50 to 500	< 50	50 to 500	CCc1n[nH]c2ncnc(-c3cc(F)cc(C4(CN)CCC4)c3)c12 [Compound 8, (1-(3-(3-ethyl-1H-pyrazolo[3,4-d]pyrimidin-4-yl)-5-fluorophenyl)cyclobutyl)methanamine]
